Values quoted from earlier work as cited in US4944949A, “Pharmaceutical delivery systems” (priority 1986, dated 1990).
Like-named read-outs stand apart in the source and are kept apart here.

Key:
[1] = for faecal blood loss with oral prostaglandin E2: oral PGE2 1 mg three or four times daily given with the drug
[2] = for most frequent adverse effects: in vivo
[3] = in vivo
[4] = parts of drug dissolving in 10,000 parts of water

SMILES	absorption [3]	solubility in organic solvents	most frequent adverse effects [2]	also measured
CC(=O)Oc1ccccc1C(=O)O [Aspirin]	–	–	–	faecal blood loss with oral prostaglandin E2 [1]: reduced to control levels
O=C(O)Cc1ccccc1Nc1c(Cl)cccc1Cl [Diclofenac]	fairly well absorbed	soluble in some organic solvents	–	Gastrointestinal disturbances / side effects reported ([2]; % of cases): about 7%; solubility in water (water): poorly soluble in water
O=C(O)c1ccccc1Nc1cccc(C(F)(F)F)c1 [Flufenamic acid]	well absorbed	reasonably soluble in various organic solvents	gastrointestinal disturbances	solubility in water [4]: less than 1 part in 10,000 parts of water; bound to plasma proteins (plasma proteins): extensively bound to plasma proteins
CC(C(=O)O)c1ccc(-c2ccccc2)c(F)c1 (centres unmarked) [Flurbiprofen]	readily absorbed	readily soluble in most organic solvents	–	bound to plasma proteins (plasma proteins; plasma): approximately 99%
CC(C)Cc1ccc(C(C)C(=O)O)cc1 (centres unmarked) [Ibuprofen, ibuprofen]	well absorbed	fairly soluble in simple organic solvents	gastrointestinal	solubility in water [4]: less than 1 part in 10,000 parts of water; solubility in water (water): poorly soluble in water
COc1ccc2c(c1)c(CC(=O)O)c(C)n2C(=O)c1ccc(Cl)cc1 [Indomethacin]	readily absorbed	more soluble in simple organic solvents	gastrointestinal problems, headache and dizziness	parts of water in which drug is soluble (parts of water per part of drug): more than 10,000 parts of water; increase in faecal blood loss ([1]; compared with controls): ~3 fold; faecal blood loss with oral prostaglandin E2 [1]: reduced to control levels
CC(C(=O)O)c1cccc(C(=O)c2ccccc2)c1 (centres unmarked) [Ketoprofen]	–	–	gastrointestinal	–
COc1ccc2cc([C@H](C)C(=O)O)ccc2c1 [Naproxen]	–	–	gastrointestinal	–
CCCCC1C(=O)N(c2ccccc2)N(c2ccccc2)C1=O [Phenylbutazone]	readily absorbed	–	nausea, vomiting and epigastric distress	–
CN1C(C(=O)Nc2ccccn2)=C(O)c2ccccc2S1(=O)=O [Piroxicam]	well absorbed	soluble in some organic solvents	high incidence of severe gastrointestinal side effects	solubility in water (water): poorly soluble in water; bound to plasma proteins (plasma proteins; plasma): 99%
CC1=C(CC(=O)O)c2cc(F)ccc2/C1=C\c1ccc([S+](C)[O-])cc1 (centres unmarked) [Sulindac]	incompletely absorbed from the gastrointestinal tract	–	gastrointestinal, headache and dizziness	–
